In brackets after ≈: the same amount, converted by molar mass.
What was measured:
Influenza A virus = experiment: Antiviral activity against influenza A virus H1N1 infected in MDCK cells assessed as reduction in virus induced cytopathic effect by CPE assay; type: functional, organism-based
Influenza B virus = experiment: Antiviral activity against Influenza B virus assessed as inhibition of virus-induced cytopathic effect; type: functional, organism-based
[1] = molecular target: Virion infectivity factor (Human immunodeficiency virus type 1 group M subtype B (isolate NY5)(HIV-1), UniProt P12504); experiment: Inhibition of HIV1 Vif; parameters: species or system Human immunodeficiency virus 1
Chain of Virion infectivity factor (P12504 1-150 limits assumed): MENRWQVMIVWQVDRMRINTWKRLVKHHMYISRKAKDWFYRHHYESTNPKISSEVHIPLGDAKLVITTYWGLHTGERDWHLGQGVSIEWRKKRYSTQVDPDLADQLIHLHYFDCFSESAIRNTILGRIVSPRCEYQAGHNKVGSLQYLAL
Chain of Virion infectivity factor (P12504 151-192 limits assumed): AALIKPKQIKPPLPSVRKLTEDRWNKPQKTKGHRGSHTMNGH

Dengue virus = experiment: Antiviral activity against Dengue virus assessed as inhibition of viral replication; type: functional, organism-based
[2] = tested on: Human immunodeficiency virus 1; experiment: Antiviral activity against HIV1 TC-1 infected in human PBMC assessed as inhibition of viral replication; type: functional, organism-based; details: Human immunodeficiency virus 1, TC-1, PBMC
West Nile virus [3] = experiment: Antiviral activity against West Nile virus infected in human A549 cells assessed as reduction in virus replication incubated for 72 hrs by MTS assay; type: functional, organism-based; details: A549, 72 h
Hepatitis C virus [4] = experiment: Antiviral activity against HCV infected in human Huh-7 cells assessed as reduction in viral infection incubated for 72 hrs by qRT-PCR analysis; type: functional, organism-based, Hepacivirus hominis; details: Huh-7, 72 h
MT4 = experiment: Cytotoxicity against human MT4 cells assessed as reduction in cell viability incubated for 72 hrs by celltiter glo assay; type: functional
West Nile virus [5] = experiment: Antiviral activity against West Nile virus infected in African green monkey Vero cells assessed as inhibition of virus induced cytopathic effect incubated for 48 hrs by MTS assay; type: functional, organism-based
Yellow fever virus = experiment: Antiviral activity against Yellow fever virus African green monkey Vero cells assessed as reduction in cytopathic effect; type: functional
West Nile virus [6] = experiment: Antiviral activity against West Nile virus infected in African green monkey Vero 76 cells assessed as reduction in cytopathic effect; type: functional
[7] = tested on: Western equine encephalitis virus; experiment: Antiviral activity against Western equine encephalomyelitis virus infected in African green monkey Vero cells assessed as reduction in cytopathic effect; type: functional
[8] = Cytotoxicity against African green monkey Vero cells assessed as reduction in cell growth incubated for 72 hrs by MTT assay; type: toxicity, cell-based; details: chlorocebus sabaeus
[9] = tested on: Vesicular stomatitis virus; experiment: Antiviral activity against Vesicular stomatitis virus infected in human A549 cells assessed as reduction in virus replication; type: functional
dengue virus type 2 = experiment: Antiviral activity against DENV-2 infected in human Huh-7 cells at MOI of 0.05 assessed as log reduction of intracellular viral titre measured after 60 hrs post infection by RT-PCR analysis; type: functional, organism-based; details: Huh-7, 60 h
Caco-2 = experiment: Cytotoxicity against human Caco-2 cells assessed as reduction in cell growth measured fpr 48 hrs by MTT assay; type: functional
SARS-CoV-2 [10] = experiment: Antiviral activity against SARS-CoV-2 infected in African green monkey Vero E6 cells assessed as inhibition of viral replication; type: functional, organism-based; details: Severe acute respiratory syndrome coronavirus 2, Vero C1008
Hepatitis C virus [11] = experiment: Antiviral activity against HCV infected in human Huh-7 cells assessed as reduction in viral infection; type: functional, organism-based, Hepacivirus hominis
SARS-CoV-2 [12] = experiment: Antiviral activity against SARS-CoV-2 infected in African green monkey Vero E6 cells assessed as reduction in viral replication incubated for 24 hrs by Immunofluorescence assay; type: functional, organism-based; details: Severe acute respiratory syndrome coronavirus 2, Vero C1008, 24 h
SARS-CoV-2 [13] = experiment: Antiviral activity against SARS-CoV-2 B.1.1.7 infected in human Calu-3 cells assessed as inhibition of viral infection measured after 48 hrs by Hoechst 33342 staining based analysis; type: functional, organism-based; details: Severe acute respiratory syndrome coronavirus 2, B.1.1.7, Calu-3, 48 h
SARS-CoV-2 [14] = experiment: Antiviral activity against SARS-CoV-2 […] B.1.351 Beta infected in human Calu-3 cells assessed as reduction of viral growth measured after 48 hrs by luciferase assay; type: functional, organism-based; details: Severe acute respiratory syndrome coronavirus 2
[15] = tested on: Human immunodeficiency virus 1; experiment: Antiviral activity against HIV-1 infected in human MT4 cells assessed as reduction in virus induced cytopathic effect incubated for 5 days by Cell Titer Glo luminescent assay; type: functional, organism-based; details: Human immunodeficiency virus 1, MT4, 120 h
SARS-CoV-2 [16] = experiment: Antiviral activity against SARS-CoV-2 infected in BALB/c mouse assessed as survival rate at 10 uM measured after 3 to 5 days; type: functional, Severe acute respiratory syndrome coronavirus 2; details: time 3-5 day

Compound: O=C(Nc1cccnc1)c1cccs1
- EC50 (Influenza A virus): 2300 nM
- EC50 (Influenza B virus): 2300 nM

Compound: CCOC(=O)c1cc(C(=O)c2ccc3ccccc3c2)n2ccc(C(=O)c3ccncc3)cc12
- IC50 [1]: 11000 nM

Compound: CCCCc1cn(-c2ccc(NC(=O)Nc3ccccc3C)cc2)nn1
- EC50 (Dengue virus): 970 nM
- EC50 [2]: 970 nM
- EC50 (West Nile virus [3]): 970 nM
- EC50 (Hepatitis C virus [4]): 970 nM

Compound: Cc1oncc1C(=O)Nc1ccc(C(F)(F)F)cc1 [LEFLUNOMIDE]
- CC50 (MT4): 178000 nM
- EC50 (West Nile virus [5]): 35000 nM

Compound: COC(=O)c1c(-c2c(Cl)cccc2Cl)noc1-c1cnn(-c2cccc(Cl)c2)c1C(F)(F)F
- EC90 (Yellow fever virus): 12.8 nM
- EC90 (West Nile virus [6]): 0.31 nM
- EC90 [7]: 33.8 nM
- CC50 at 72 h [8]: 5000 nM
- EC90 [9]: 38.7 nM

Compound: CN(/N=C/c1ccccc1C(=O)O)c1nc(-c2ccccc2Cl)cs1
- EC50 (dengue virus type 2): 17 nM

Compound: Cc1c(-c2ccc(-c3ccccc3F)cc2)nc2ccc(F)cc2c1C(=O)O [BREQUINAR]
- CC50 (Caco-2): 231000 nM
- EC50 (SARS-CoV-2 [10]): 123 nM

Compound: C/C=C/C[C@@H](C)[C@@H](O)[C@H]1C(=O)N[C@@H](CC)C(=O)N(C)C(C)C(=O)N(CC)[C@@H](CC(C)C)C(=O)N[C@@H](C(C)C)C(=O)N(C)[C@@H](CC(C)C)C(=O)N[C@@H](C)C(=O)N[C@H](C)C(=O)N(C)[C@@H](CC(C)C)C(=O)N(C)[C@@H](CC(C)C)C(=O)N(C)[C@@H](C(C)C)C(=O)N1C (some centres undefined)
- EC50 (Hepatitis C virus [11]): 0.27 µg/mL (≈ 0.219 µM)

Compound: COc1cc2c(c(OC)n1)[C@]1(O)[C@H](O)[C@H](CN(C)C)[C@@H](c3ccccc3)[C@]1(c1ccc(C#N)cc1)O2 [ZOTATIFIN]
- EC50 (SARS-CoV-2 [12]): 37 nM

Compound: CS(=O)(=O)N[C@@H](CCC(N)=O)C(=O)N[C@@H](Cc1ccccc1)C(=O)N[C@@H](CCCNC(=N)N)C(=O)c1nc2ccccc2s1
- IC50 (SARS-CoV-2 [13]): 1.9 nM
- IC50 (SARS-CoV-2 [14]): 1.9 nM

Compound: Oc1ccccc1/C=N/Nc1nc(Nc2ccc(F)cc2)nc(Nc2ccc(F)cc2)n1
- EC50 [15]: 2 nM

Compound: CONC(=O)[C@H]1[C@@H](O)[C@@]2(O)c3c(OC)cc(OC)cc3O[C@@]2(c2ccc(OC)cc2)[C@@H]1c1ccccc1
- EC50 (SARS-CoV-2 [12]): 1.82 nM

Compound: CN(C)C(=O)COC(=O)Cc1ccc(OC(=O)c2ccc(NC(=N)N)cc2)cc1.CS(=O)(=O)O [CAMOSTAT MESILATE]
- Activity (SARS-CoV-2 [16]): 60%
